These are literature values, as cited in EP0084011B1, “Quinoline carboxylic acid complexes with guanidinium carbonate and guanidine” (Merck & Co., Inc., priority 1982, dated 1983).

Values after ≈ are worked out from the molar mass of the structure shown.

As to `CCn1cc(C(=O)O)c(=O)c2cc(F)c(N3CCNCC3)cc21` [Parent, 1-ethyl-6-fluoro-1,4-dihydro-4-oxo-7-(1-piperazinyl)-3-quinoline carboxylic acid], the Solubility (commonly how much of the substance goes into solution per volume) (in water, 25 °C, reported water solubility of the parent compound) is 200 µg/mL (≈ 626 µM). In addition, the water solubility result (pH range of 6-10, background statement) is on record as “very low water solubility”.
